Data on four molecules can be found in PubChem BioAssay (NCI).

Among the test systems are EKVX NSCLC; HCT-15 colon; KM12 colon; MOLT-4 leukemia; NCI-H23 lung; NCI-H460 lung; OVCAR-3 ovarian; OVCAR-5 ovarian; OVCAR-8 ovarian; SF-539 CNS; SK-MEL-2 melanoma; SK-OV-3 ovarian; UACC-62 melanoma; UO-31 renal.
What all share (experiment): NCI-60 cell line screen, 48 h

SMILES strings stand for the structures.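 1) Cells in 96-well plates. 2) Compound, 48 h, 5 concentrations. 3) Linear interpolation between surrounding doses. 4) Unreached endpoint = highest concentration. GI50 is the concentration that inhibits growth by half. TGI marks complete inhibition of growth.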

Turning to `O=c1c2cc(I)ccc2nc(-c2cccs2)n1Nc1ccccc1`, the TGI is 58.4 µM in the assay with EKVX NSCLC; above 100 µM in the assay on HCT-15 colon; above 100 µM in the assay on KM12 colon; above 100 µM in the assay on MOLT-4 leukemia; 91 µM with NCI-H23 lung; above 100 µM in the assay with NCI-H460 lung. Also, the TGI was 6.52 µM in the assay on OVCAR-3 ovarian; above 100 µM in the assay with OVCAR-5 ovarian; above 100 µM with OVCAR-8 ovarian; above 100 µM in the assay with SF-539 CNS; 1.63 µM in the assay on SK-MEL-2 melanoma; 74.4 µM with SK-OV-3 ovarian. Also, the TGI in the assay on UACC-62 melanoma and in the assay on UO-31 renal was above 100 µM throughout.
As to `Nc1ccc(N=Nc2ccc(/C=C/c3ccc(N=Nc4ccc(N)c5ccc(S(=O)(=O)O)cc45)cc3S(=O)(=O)O)c(S(=O)(=O)O)c2)c2cc(S(=O)(=O)O)ccc12`, the TGI with EKVX NSCLC, in the assay with HCT-15 colon, in the assay on KM12 colon, with MOLT-4 leukemia, in the assay on NCI-H23 lung and in the assay with NCI-H460 lung was above 100 µM throughout. For the same molecule, the TGI in the assay on OVCAR-3 ovarian, with OVCAR-5 ovarian, in the assay with OVCAR-8 ovarian, with SF-539 CNS, in the assay with SK-MEL-2 melanoma and with SK-OV-3 ovarian was above 100 µM in each case. Besides, the TGI in the assay on UACC-62 melanoma and in the assay with UO-31 renal was above 100 µM in each case.
For the molecule `CC1CN=C(NCc2ccccc2)S1` (stereo not drawn), the TGI with EKVX NSCLC, in the assay on HCT-15 colon, in the assay with KM12 colon, with MOLT-4 leukemia, in the assay on NCI-H23 lung and with NCI-H460 lung was above 100 µM throughout. In addition, the TGI in the assay with OVCAR-3 ovarian, in the assay with OVCAR-5 ovarian, in the assay with SF-539 CNS, in the assay on SK-MEL-2 melanoma, with SK-OV-3 ovarian and with UACC-62 melanoma was above 100 µM in each case. Also, the TGI with UO-31 renal is above 100 µM.
On to `COc1cc(/C=C2\CCCC3=C2NC(N)=NC3c2cc(OC)c(OC)c(OC)c2)cc(OC)c1OC` (stereo not drawn), for which the GI50 in the assay on EKVX NSCLC was 3.12 µM; with MOLT-4 leukemia, 1.69 µM; in the assay with OVCAR-8 ovarian, 0.298 µM; with SF-539 CNS, 3.27 µM; in the assay on SK-MEL-2 melanoma, 2.08 µM; in the assay on SK-OV-3 ovarian, 3.43 µM. In addition, the TGI was above 100 µM in the assay with EKVX NSCLC; 5.83 µM with MOLT-4 leukemia; 12.1 µM in the assay on OVCAR-8 ovarian; above 100 µM with SF-539 CNS; 4.83 µM with SK-MEL-2 melanoma; above 100 µM in the assay on SK-OV-3 ovarian.
